Experimental data taken from US20240336568A1, “SELECTIVE PHD1 INHIBITOR COMPOUNDS, COMPOSITIONS, AND METHODS OF USE” (Akebia Therapeutics, Inc., priority 2021, published 2024).

Test system: full-length human prolyl-4-hydroxylase domain (PHD) enzymes, PHD1 and PHD2
Experiment: TR-FRET assay, selectivity of compounds for PHD1 over PHD2 (ratio of Kis calculated from IC50s)
Format: biochemical
Conditions: ratio of Kis (PHD2 Ki/PHD1 Ki), Kis calculated from TR-FRET IC50s by Cheng Prussoff equation; 1 uM 2-OG
Source text: Time-resolved fluorescence resonance energy transfer (TR-FRET) assay was utilized to determine the enzymatic half maximal inhibitory concentration (IC50) value of PHD inhibitors against the full-length human prolyl-4-hydroxylase domain (PHD) enzymes, PHD1 and PHD2. The TR-FRET assay was developed based on the specific binding of hydroxylated HIF-la peptide with the complex formed by VHL, EloB and EloC (VBC), to generate a fluorescent signal. Terbium (Tb)-Donor (monoclonal antibody anti-6His-Tb-cryptate Gold) and D2-acceptor (streptavidin [SA]-D2) of TR-FRET are linked to the VBC complex and to HIF-1α peptide, respectively. The VBC complex binds specifically to the HIF-1α peptide when it is hydroxylated, allowing energy transfer from TR-FRET donor to acceptor (FIG. 1).
TR-FRET Reagents. Monoclonal antibody anti-6His-Tb-cryptate Gold (catalog #61HI2TLA) and streptavidin (SA)-D2 (catalog #610SADLA) were purchased from CisBio International (Bedford, MA, USA).
N-terminus biotinylated HIF-1α C35 synthetic peptide representing amino acids 547 to 581 and including the proline 564 PHD2 hydroxylation site was purchased from California Peptide Research (Salt Lake City, UT, USA).
VBC Complex. His-tagged recombinant VHL protein, EloB, EloC complex (His-VBC) was supplied by Axxam (Milan, Italy). Recombinant human VHL (National Center for Biotechnology Information [NCBI] accession number NP_00542.1) contained a His tag at the C-terminus of amino acids 55 to 213 and is referred to as VHL-His. VHL-His was co-expressed in E. coli with full-length human EloB (NCBI accession number Q15370.1) and full-length human EloC (NCBI accession number Q15369.1) and purified by affinity chromatography on a nickel-nitrilotriacetic acid (Ni-NTA) column as the His-VBC complex. Purity (˜80%) was assessed by sodium dodecyl sulfate polyacrylamide gel electrophoresis (SDS-PAGE).
PHD1. Recombinant human PHD1 protein (catalog #81064, Lot #24717001) was purchased from Active Motif (Carlsbad, CA, USA). PHD1 was expressed in a baculovirus expression system as the full-length protein (NCBI accession number NP_542770.2) with an N-terminal FLAG tag (molecular weight 44.9 kDa). Purity (>90%) was assessed by SDS-PAGE.
PHD2. The full-length human PHD2 enzyme was produced with a baculovirus infected insect cell (BIIC) expression system by Beryllium (Bedford, MA, USA). The PHD2 construct contained amino acids 1 to 426 of PHD2 (UniProt Knowledgebase[UniProtKB]/Swiss-Prot accession number Q9GZT9.1), and a His tag and a Tobacco Etch Virus (TEV) protease cleavage site at the N-terminus. The construct was expressed in Sf9 insect cells, purified by Ni-NTA column and digested with TEV protease to remove the His tag.
Compounds were preincubated with PHD enzyme in a 10 μL reaction volume in white 384-well Optiplate microplates (catalog #6007290, Perkin Elmer, Waltham, MA, USA). For this, 5 μL compound was serially diluted with dilution buffer (50 mM HEPES [4-(2-hydroxyethyl)-1-piperazineethanesulfonic acid] pH 7.5, 50 mM sodium chloride [NaCl], 0.01% Tween-20, 0.01% purified bovine serum albumin [BSA]) and mixed with 5 μL PHD enzyme mix prepared as a 4× concentrate in the dilution buffer containing PHD enzyme (60 nM PHD1, 20 nM PHD2, 140 nM PHD3), 40 μM ferrous ammonium sulfate (FAS), 4 mM sodium (Na) ascorbate. The plates were incubated for 30 minutes at room temperature without rotation.
Five microliters of the VBC/anti-6His-Tb-cryptate Gold mix prepared as a 4× concentrate in dilution buffer containing 20 nM His-VBC, 1.32 nM monoclonal antibody anti-6His-Tb-cryptate Gold was then added. This step was followed immediately by the addition of 5 μL of the HIF-1α C35 substrate mix prepared as a 4× concentrate in the dilution buffer containing 120 nM biotin-labeled HIF-1α C35, 132 nM SA-D2, 4 μM 2-oxoglutarate (2-OG) to reach a final reaction volume of 20 μL. […]

| SMILES | Selectivity of PHD1 over PHD2 [fold] |
| --- | --- |
| CC(C)(CNC(=O)c1ncc(-c2ccc3cc(OCCc4ccc(Cl)cc4)ccc3c2)cc1O)C(=O)O [compound 28, 3-(5-(6-(4-chlorophenethoxy)naphthalen-2-yl)-3-hydroxypicolinamido)-2,2-dimethylpropanoic acid] | ~9 |
| CC(C)(CNC(=O)c1ncc(-c2cccc(N)c2)cc1O)C(=O)O [compound 29, 3-(5-(3-aminophenyl)-3-hydroxypicolinamido)-2,2-dimethylpropanoic acid] | ~20 |
| CC(C)(CNC(=O)c1ncc(-c2cccc(NCc3ccc(Cl)cc3)c2)cc1O)C(=O)O [compound 30, 3-(5-(3-((4-Chlorobenzyl)amino)phenyl)-3-hydroxypicolinamido)-2,2-dimethylpropanoic acid] | ~223 |
| CC(C)(CNC(=O)c1ncc(-c2cccc(OCCc3ccc(Cl)cc3)c2)cc1O)C(=O)O [compound 31, 3-(5-(3-(4-chlorophenethoxy)phenyl)-3-hydroxypicolinamido)-2,2-dimethylpropanoic acid] | ~40 |
| CC(C)(C)OC(=O)N1CCC(n2cc(-c3cnc(C(=O)NCC(C)(C)C(=O)O)c(O)c3)cn2)CC1 [compound 32, 3-(5-(1-(1-(tert-butoxycarbonyl)piperidin-4-yl)-1H-pyrazol-4-yl)-3-hydroxypicolinamido)-2,2-dimethylpropanoic acid] | ~444 |
| CC(C)(C)OC(=O)N1CCc2sc(-c3cnc(C(=O)NCC(C)(C)C(=O)O)c(O)c3)cc2C1 [compound 33, 3-(5-(5-(tert-butoxycarbonyl)-4,5,6,7-tetrahydrothieno[3,2-c]pyridin-2-yl)-3-hydroxypicolinamido)-2,2-dimethylpropanoic acid] | ~1605 |
| CC(C)(CNC(=O)c1ncc(-c2cnn(-c3ccc(Cl)cc3Cl)c2)cc1O)C(=O)O [compound 34, 3-(5-(1-(2,4-dichlorophenyl)-1H-pyrazol-4-yl)-3-hydroxypicolinamido)-2,2-dimethylpropanoic acid] | ~24 |
| CC(C)(CNC(=O)c1ncc(-c2cc3nc(Cl)ccc3s2)cc1O)C(=O)O [compound 35, 3-(5-(5-chlorothieno[3,2-b]pyridin-2-yl)-3-hydroxypicolinamido)-2,2-dimethylpropanoic acid] | ~271 |
| CC(C)(CNC(=O)c1ncc(-c2ccc(S(=O)(=O)N3CCCC3)cc2CO)cc1O)C(=O)O [compound 36, 3-(3-hydroxy-5-(2-(hydroxymethyl)-4-(pyrrolidin-1-ylsulfonyl)phenyl)picolinamido)-2,2-dimethylpropanoic acid] | ~113 |
| CC(C)(CNC(=O)c1ncc(-c2cnn(-c3cccc(C(F)(F)F)c3)c2)cc1O)C(=O)O [compound 37, 3-(3-hydroxy-5-(1-(3-(trifluoromethyl)phenyl)-1H-pyrazol-4-yl)picolinamido)-2,2-dimethylpropanoic acid] | ~25 |
| CC(C)(CNC(=O)c1ncc(-c2cnn3c2CCCC3)cc1O)C(=O)O [compound 38, 3-(3-hydroxy-5-(4,5,6,7-tetrahydropyrazolo[1,5-a]pyridin-3-yl)picolinamido)-2,2-dimethylpropanoic acid] | ~49 |
| Cc1ccnc2ccc(-c3cnc(C(=O)NCC(C)(C)C(=O)O)c(O)c3)cc12 [compound 39, 3-(3-hydroxy-5-(4-methylquinolin-6-yl)picolinamido)-2,2-dimethylpropanoic acid] | ~230 |
| Cc1cccc2cc(-c3cnc(C(=O)NCC(C)(C)C(=O)O)c(O)c3)cnc12 [compound 40, 3-(3-hydroxy-5-(8-methylquinolin-3-yl)picolinamido)-2,2-dimethylpropanoic acid] | ~20 |
| COc1ccc2cc(-c3cnc(C(=O)NCC(C)(C)C(=O)O)c(O)c3)ccc2c1 [compound 41, 3-(3-hydroxy-5-(6-methoxynaphthalen-2-yl)picolinamido)-2,2-dimethylpropanoic acid] | ~1960 |
| CC(C)(CNC(=O)c1ncc(-c2ccc3cnccc3c2)cc1O)C(=O)O [compound 42, 3-(3-hydroxy-5-(isoquinolin-6-yl)picolinamido)-2,2-dimethylpropanoic acid] | ~197 |
| CC(C)(CNC(=O)c1ncc(-c2ccc3ccncc3c2)cc1O)C(=O)O [compound 43, 3-(3-hydroxy-5-(isoquinolin-7-yl)picolinamido)-2,2-dimethylpropanoic acid] | ~1875 |
| Cc1ccc2ccc(-c3cnc(C(=O)NCC(C)(C)C(=O)O)c(O)c3)c(F)c2n1 [compound 44, 3-(5-(8-fluoro-2-methylquinolin-7-yl)-3-hydroxypicolinamido)-2,2-dimethylpropanoic acid] | ~1833 |
| Cc1ccc2cc(-c3cnc(C(=O)NCC(C)(C)C(=O)O)c(O)c3)ccc2n1 [compound 45, 3-(3-hydroxy-5-(2-methylquinolin-6-yl)picolinamido)-2,2-dimethylpropanoic acid] | ~3740 |
| CC(C)(CNC(=O)c1ncc(-c2ccc3nccnc3c2)cc1O)C(=O)O [compound 46, 3-(3-hydroxy-5-(quinoxalin-6-yl)picolinamido)-2,2-dimethylpropanoic acid] | ~124 |
| CC(C)(CNC(=O)c1ncc(-c2cn(CCCc3ccc(Cl)cc3)nn2)cc1O)C(=O)O [compound 47, 3-(5-(1-(3-(4-chlorophenyl)propyl)-1H-1,2,3-triazol-4-yl)-3-hydroxypicolinamido)-2,2-dimethylpropanoic acid] | ~10 |
| CC(CNC(=O)c1ncc(-c2ccc3ccccc3c2)cc1O)C(=O)O (centres unmarked) [compound 48, 3-(3-Hydroxy-5-(naphthalen-2-yl)picolinamido)-2-methylpropanoic acid] | ~167 |
| CC(CNC(=O)c1ncc(-c2cccc(Cl)c2)cc1O)C(=O)O (centres unmarked) [compound 49, 3-(5-(3-chlorophenyl)-3-hydroxypicolinamido)-2-methylpropanoic acid] | ~12 |
| CC(CNC(=O)c1ncc(-c2cnn(-c3ccccc3)c2)cc1O)C(=O)O (centres unmarked) [compound 50, 3-(3-hydroxy-5-(1-phenyl-1H-pyrazol-4-yl)picolinamido)-2-methylpropanoic acid] | ~50 |
| CC(C)(CNC(=O)c1nc(C#N)c(-c2cccc(Cl)c2)cc1O)C(=O)O [compound 51, 3-(5-(3-chlorophenyl)-6-cyano-3-hydroxypicolinamido)-2,2-dimethylpropanoic acid] | ~4 |
| CC(C)(CNC(=O)c1ncc(-c2cccc(NCCc3ccc(Cl)cc3)c2)cc1O)C(=O)O [compound 52, 3-(5-(3-((4-Chlorophenethyl)amino)phenyl)-3-hydroxypicolinamido)-2,2-dimethylpropanoic acid] | ~31 |
| CC(C)(CNC(=O)c1ncc(-c2cnc(-c3ccccc3)s2)cc1O)C(=O)O [compound 53, 3-(3-hydroxy-5-(2-phenylthiazol-5-yl)picolinamido)-2,2-dimethylpropanoic acid] | ~1215 |
